What was measured:
[1] = In vitro EM field-triggered release of fluorescent DNA from nanoparticles embedded in hydrogel (matrigel) plugs; details: hydrogel plug; for release on higher power EM field: higher power 3 kW
[2] = mouse, in vivo
Experimental: Phenol red free, growth factor reduced matrigel (400 μl, BD Biosciences) was added to 100 μl of particles. To obtain 1.05% total concentration of particles, 75 μl of DNA-conjugated particles (approximately 3.3 mg/ml) were added to 25 μl of similar 50 nm particles (200 mg/ml, Chemicell). Gels (total volume 500 μl) were mixed at 4° C. to prevent gelation.
Prior to injection of matrigel plugs into mice, approval from the Burnham Institute Animal Use Committee was obtained (AUF 05-054). In these experiments, 500 μl volumes were injected subcutaneous near the posterior mammary fat pad of six athymic nude mice and allowed to gel for 45 minutes. Prior to injection, animals were anesthetized with Avertin® (tribromoethanol) and remained under anesthesia during the remainder of the experiment. Three animals were treated with EM fields for two 5 minute doses, with 15 minutes between field applications (+EMF), while three were not treated (−EMF). […] To quantify penetration depth, 8 images of the tissue/phantom boundary were taken for each animal (3 animals per group, 24 images total). […] Using Metamorph software (Universal Imaging), green fluorescence on the tissue side of the boundary was quantified. For each fluorescent “object,” the area and distance from the tissue boundary was measured. An area-weighted average distance was calculated. […]

Row | Substance | release of fluorescein into surrounding buffer on repeated EM field pulses ([1]; EM field pulses 400 kHz, 1.25 kW, 5 minutes every 40 minutes) | increase of the average distance of fluorescence signal, EM field treated over unexposed controls [2] | release on higher power EM field [1] | release on low power EM field pulses ([1]; low power EM field pulses 0.55 kW)
1 | 5′-TGA TTC AAG CCG ACT AAC-3′ (DNA TGATTCAAGCCGACTAAC; 5' fluorescein label, further chemistry not given here) | corresponding release of fluorescein | approximately six-fold | – | –
2 | 5′-CGCTGATTCAAGCCGACTAACCGC-3′ (DNA CGCTGATTCAAGCCGACTAACCGC; DNA, backbone and methylation of C not given here; fluorescent dye at 5' end, dye not named) [24 bp, HEX, 5′ HEX-labeled 24 bp complement DNA hybridized to 30 bp parent DNA on magnetite nanoparticles] | – | – | simultaneous release of both species | –
3 | 5′-TCG CTG ATT CAA-3′ (DNA TCGCTGATTCAA; DNA, backbone and methylation of C not given here; fluorescent dye at 5' end, dye not named) [12 bp, FAM, 5′ FAM-labeled 12 bp complement DNA hybridized to 30 bp parent DNA on magnetite nanoparticles] | – | – | simultaneous release of both species | triggered release predominantly of FAM

Source: patent US20090093551A1, “REMOTELY TRIGGERED RELEASE FROM HEATABLE SURFACES” (priority 2006, published 2009)
